# Data from paper PMC12186263, “Molecular Basis for Peptide Nitration by a Novel Cytochrome P450 Enzyme in RiPP Biosynthesis” (ACS Catalysis, 2025).
# How the values were obtained:
# [1] = tested on: ferrous RufO; assay: Stopped-flow transient kinetics of O2 and •NO binding to ferrous RufO; details: for association rate constant k1: 3.3 μM ferrous RufO; for association rate constant k1 / dissociation rate constant k2 (y-intercept): pH 8.0, linear fit
# Procedure: 5 Transient kinetics of ferrous RufO binding to O2 and ^•NO. Spectral changes following the rapid mixing of 3.3 μM ferrous RufO bound to MRYLH with (A) 18 μM O2 and (C) 70 μM ^•NO over 0.2 s. The black-to-red spectral transitions represent the formation of (A) a ferric-superoxo intermediate and (C) a ferrous-nitrosyl complex. Insets show the time-dependent absorbance changes at 438 nm (the most pronounced shift), fitted using single exponential equations to determine rate constants (red trace). Dependence of rate constant as a function of gas concentration on (B) O2 and (D) ^•NO binding to ferrous RufO alone (blue) and peptide-bound RufO (red). Second-order rate constants were determined through linear fitting. TEXT PRINTED IN THE PICTURE: (A) + O2: kobs = 74.3 s^-1 | (B) RufO alone: k1 = 3.55 μM^-1 s^-1 | (B) peptide-bound: k1 = 3.83 μM^-1 s^-1 | (C) + •NO: kobs = 107.4 s^-1 | (D) RufO alone: k1 = 4.12 μM^-1 s^-1 | (D) peptide-bound: k1 = 2.35 μM^-1 s^-1
# Stopped-flow spectroscopic data were collected using an Applied Photophysics SX20 stopped-flow system equipped with a photodiode array detector. The system was maintained in an anaerobic chamber (O2 < 1 ppm) and all sample preparation was done anaerobically. Measurements were performed at 4 °C. All samples were prepared in a buffer containing 50 mM Tris-HCl and 100 mM NaCl, pH 8.0. RufO was prereduced with a minimal amount of sodium dithionite. The final mixed concentrations of RufO and MRYLH (where applicable) were 3.3 and 24 μM, respectively. Solutions of varying O2 concentrations were prepared by diluting air-saturated buffer with anaerobic buffer. The concentrations of O2 in the air-saturated buffer were measured with an Oxygraph+ oxygen electrode (Hansatech). To generate ^•NO-containing solutions, 0.5 mM DEA NONOate (≥98%, Cayman Chemical) was incubated in anaerobic buffer for 4 h to ensure complete ^•NO release. The ^•NO concentrations were quantified based on a hemoglobin assay, and further dilutions were made with anaerobic buffer immediately prior to mixing. Experimental data were analyzed by the ProK software package from Applied Photophysics. The second-order rate constants were obtained from linear fitting, with the resulting equations: y = 3.55x + 54.4 for the mixing of RufO with O2, y = 3.83x + 6.5 for the ES complex with O2, y = 4.12x −158.0 for RufO with ^•NO, and y = 2.35x – 58.9 for the ES complex with ^•NO.
# Figure S9. Transient kinetics of ferrous RufO alone binding to O2 and •NO Spectral changes following the rapid mixing of 3.3 μM ferrous RufO with (A) 18 μM O 2 and […] superoxo intermediate and (B) a ferrous-nitrosyl complex. Insets show the time-dependent absorbance changes at 438 nm (the most pronounced shift), fitted using first-order exponential equations to determine rate constants (red trace).
# (1 picture or pasted object on this page, not shown here)
# [2] = molecular target: T1, RufO (Streptomyces atratus, UniProt A0A224AU14); assay: LC-MS of single-turnover RufO reaction with sequential O2 and •NO addition; assay type: biochemical; details: 100 μM pre-reduced RufO, 150 μM MRYLH, 150 μM O2 30 s then 150 μM •NO 30 s, 50 mM ammonium acetate pH 7.5
# T1 construct: made in house
# T1 sequence (A0A224AU14 1-394): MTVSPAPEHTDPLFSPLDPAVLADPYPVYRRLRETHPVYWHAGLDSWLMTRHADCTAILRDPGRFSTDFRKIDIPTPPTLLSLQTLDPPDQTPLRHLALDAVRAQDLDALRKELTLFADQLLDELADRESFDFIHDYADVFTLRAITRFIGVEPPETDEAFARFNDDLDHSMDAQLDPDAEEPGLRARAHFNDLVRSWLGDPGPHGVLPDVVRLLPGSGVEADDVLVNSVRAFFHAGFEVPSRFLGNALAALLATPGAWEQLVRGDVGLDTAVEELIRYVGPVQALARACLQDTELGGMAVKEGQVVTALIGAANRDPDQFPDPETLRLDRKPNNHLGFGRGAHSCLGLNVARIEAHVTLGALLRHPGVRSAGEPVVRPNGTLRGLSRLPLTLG
# [3] = molecular target: T2, TxtE (Streptomyces scabiei, UniProt C9ZDC6); details: Trp-bound TxtE; reported, ref number not given; cited from earlier work
# T2 sequence (C9ZDC6 1-406): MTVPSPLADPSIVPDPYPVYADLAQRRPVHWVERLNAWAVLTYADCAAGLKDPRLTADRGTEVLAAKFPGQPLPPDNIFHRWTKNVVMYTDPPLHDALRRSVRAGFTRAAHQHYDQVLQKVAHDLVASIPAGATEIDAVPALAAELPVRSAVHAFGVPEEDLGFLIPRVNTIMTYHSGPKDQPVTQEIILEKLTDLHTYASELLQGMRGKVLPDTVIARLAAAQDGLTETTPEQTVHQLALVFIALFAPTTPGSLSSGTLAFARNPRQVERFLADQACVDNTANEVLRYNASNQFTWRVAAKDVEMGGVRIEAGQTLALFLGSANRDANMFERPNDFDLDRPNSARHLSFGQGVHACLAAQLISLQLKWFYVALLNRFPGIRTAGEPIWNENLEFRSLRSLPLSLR
# [4] = molecular target: T1, RufO; details: spectroscopic and structural analyses; ref number not given; cited from earlier work
# Text: Recent studies on a nitrating CYP have showcased collective efforts to uncover a novel enzymatic function in RiPP biosynthesis. Nitration is a biologically significant transformation that modifies the function, stability, and reactivity of proteins and other biomolecules. − While most biological nitration processes are known to proceed through less specific reactions involving peroxynitrite and other nitrative reactive species, , biocatalytic nitration is rare and underexplored. The first example was reported for TxtE in thaxtomin biosynthesis, which catalyzes the direct nitration of L-trypto ...
# [5] = molecular target: T1, RufO; details: recent report, ref number not given; cited from earlier work
# Text: The integration of spectroscopic and structural characterization allows us to elucidate the molecular mechanism of substrate recognition and nitration activity in RufO. Our findings provide important insights into the catalytic process, enabling us to propose a mechanistic model for RufO-mediated peptide nitration (Figure S13). In its resting state, RufO adopts a six-coordinate, low-spin heme configuration with a water molecule as the distal ligand. While its heme environment is spectroscopically similar to that of typical CYPs, the flexibility of the B/C loop and the F and G helices contribut ...
# [6] = peptide-bound ferrous RufO + O2, 4 °C, pH 8.0
compound,measurement,setting,value
O=O [O2],kobs,"[1]; MRYLH-bound ferrous RufO 3.3 μM, 18 μM O2, 438 nm, single exponential, 4 °C",74.3 s⁻¹
same,association rate constant k1,"[1]; MRYLH-bound, 24 μM MRYLH, 4 °C",3.83 μM^–1 s^–1
same,association rate constant k1,"[1]; RufO alone, 4 °C",3.55 μM^–1 s^–1
same,dissociation rate constant k2 (y-intercept),"[1]; RufO alone, 4 °C",54.4 s^–1
same,O2 binding faster than •NO (times),"[1]; in the presence of the peptide, ratio of k1",1.6 times
same,dissociation rate constant k2 (y-intercept),"[1]; peptide-bound RufO, 4 °C",6.5 s^–1
same,ferric-superoxo intermediate stable for up to,[1]; [6],up to 100 s
same,time of peak of ferric-superoxo intermediate,[1]; [6],approximately 0.05 s
same,"product yield, O2-first vs reverse order",[2],approximately double the product yield
same,k1 of O2 binding,[3],4.43 μM^–1 s^–1
"N[C@@H](Cc1ccc(O)cc1)C(=O)O [Tyr, L-tyrosine]","binding to RufO, in words",[4],unable to bind
MRFLH,"nitration by RufO, in words",[5],RufO cannot nitrate
